In patent publication US5021597A, “Novel acrylic acid salts, a process for their preparation, pharmaceutical compositions containing them and their use in the medicine” (Richter Gedeon Vegyeszeti Gyar Rt., priority 1989, dated 1991):
Structures can show the parent of a compound that is named as a salt.

What was measured:
gastric acid secretion = experiment: inhibition of gastric acid secretion by using pylorus ligature (Shay); assay type: in vivo, Wistar rat; conditions: pretreatment 30 min; for ED50 p.o.: 240 min; for % Inhibition in the amount of the acid at a dose of 25 mg/kg p.o.: Table 4, female Wistar rats
Experimental: (2) Assay of the inhibition of gastric acid secretion by using pylorus ligature [Shay et al., Gastroenterology, 5, 43-61 (1945)]
Before ligating the pylorus the test compounds suspended with Tween were given orally at a volume of 0.5 ml per […] of body weight to female Wistar rats fasted previously for 20 hours. The animals were sacrificed 4 hours after the operation, and the amount of the acid in the stomach was measured by titration with 0.01N sodium hydroxide solution in the presence of phenolphtalein indicator. The pH value of the content of the stomach was measured by using a pH-meter (Radelkis, Type OP-211/1).

[1] = system: gastric injuries induced by acidic alcohol; experiment: gastric injuries induced by acidic alcohol (cytoprotection); assay type: in vivo, rat; conditions: acidic alcohol gastric injury, female rats, pretreatment 30 min; for % Inhibition at a dose of 10 mg/kg p.o.: Table 2
Experimental: (1) Assay of gastric injuries induced by acidic alcohol [A. Robert, Gastroenterology, 77, 761-767 (1979)]
Female rats weighing about 120 to 150 g fasted for 24 hours were used in this test. Test compounds suspended with Tween 80 were given orally to the animals through an intragastric tube. After a certain period (pretreatmenttime) acidic alcohol was given through the intragastric tube at a dose or 0.5 ml per 100 g of body weight. The animals were sacrificed after 1 hour, their stomach was removed and incised along the great curve. The length of the reddish-brown strips (haemorrhagic lesions) was measured and the mean total length per stomach was calculated. The biological activity of the test compounds was given compared to the control group.

Campylobacter pylori = experiment: activity against Campylobacter pylori by agar diffusion and agar dilution assays; assay type: cell-based; conditions: Helicobacter pylori, Campylobacter pylori cultures isolated from 5 different ulcerous patients, read-out: MIC (minimal inhibitory concentration)
Experimental: The activity of the compounds of the present invention against Campylobacter pylori was investigated by agar diffusion and agar dilution assays. The experiments were carried out with Campylobacter pylori cultures isolated from 5 different ulcerous patients.

Row | Compound | ED50 p.o. (gastric acid secretion; Table 3, female Wistar rats) [mg/kg] | ED50 p.o. ([1]; Table 1) [mg/kg] | % Inhibition in the amount of the acid at a dose of 25 mg/kg p.o. (gastric acid secretion) [%] | also measured
1 | O=C(O)/C=C/S(=O)(=O)c1ccccc1 [A, bismuth tris [3-phenylsulfonyl-2(E)-propenoate] pentahydrate] | – | – | – | ED50 (gastric acid secretion; Rattus norvegicus, po, 4 h, Table 3, female Wistar rats): 8.6 mg/kg; ED50 ([1]; Rattus norvegicus, po, Table 1): 4 mg/kg
2 | O=C(O)/C=C/S(=O)(=O)c1ccccc1 [C, monoethanolamine salt of 3-phenylsulfonyl-2(E)-propenoic acid] | 11.0 | 3.6 | – | –
3 | O=C(O)/C=C/S(=O)(=O)c1ccccc1 [D, bismuth bis [3-phenylsulfonyl-2(E)-propenoate] chloride hexahydrate] | 12.0 | 3.1 | – | MIC (Campylobacter pylori): 250 to 1000 µg/mL
4 | O=C(O)/C=C/S(=O)(=O)c1ccccc1 [E, (S)-arginine salt of 3-phenylsulfonyl-2(E)-propenoic acid] | – | – | 56 | % Inhibition at a dose of 10 mg/kg p.o. [1]: 73%
5 | O=C(O)/C=C/S(=O)(=O)c1ccccc1 [F, (S)-lysine salt of 3-phenylsulfonyl-2(E)-propenoic acid] | – | 4.1 | 50 | –
6 | O=C(O)/C=C/Sc1ccccc1 [G, bismuth tris [3-phenylthio-2(E)-propenoate] trihydrate] | – | – | 15 | –
7 | O.O.O.O.O=C([O-])/C=C/S(=O)(=O)c1ccccc1.O=C([O-])/C=C/S(=O)(=O)c1ccccc1.[Zn+2] [H, zinc bis [3-phenylsulfonyl-2(E)-propenoate] tetrahydrate] | 8.0 | 3.2 | – | –
8 | zinc bis [phenylthio-2(Z)-propenoate] hydrate | – | – | – | % Inhibition at a dose of 10 mg/kg p.o. [1]: 61%
